The results in this text go back to US20080090805A1, “CB-1 MODULATING COMPOUNDS AND THEIR USE” (ACADIA PHARMACEUTICALS INC., priority 2005, published 2008).

This assay has as its target CB1 (mutant) (Homo sapiens, UniProt P21554). Briefly: R-SAT functional receptor assay, CB1 (mutant, truncated after amino acid 417). In kind it is cell-based. The conditions noted are these: R-SAT CB1; for Emax / % Inhibition: receptor form not stated, relative to SR141716 (100%).
[1] abbreviates: Appendix A, receptor form (mutant or wild-type) not stated, read-out: pIC50 (converted).
Where [2] appears, read: Appendix A, read-out: % Inhibition.
[3] abbreviates: pIC50, Appendix A, receptor form (mutant or wild-type) not stated.

What is called % Inhibition is the relative decrease from the control value, in per cent. By pIC50 is commonly meant the negative decadic logarithm of the IC50, by convention in mol/L. Read a high pIC50 as a low IC50.

Each structure is given as a SMILES string. Where two headings read alike, the source gives them in different places.

CB1 (mutant), sequence (P21554 1-417, change not shown): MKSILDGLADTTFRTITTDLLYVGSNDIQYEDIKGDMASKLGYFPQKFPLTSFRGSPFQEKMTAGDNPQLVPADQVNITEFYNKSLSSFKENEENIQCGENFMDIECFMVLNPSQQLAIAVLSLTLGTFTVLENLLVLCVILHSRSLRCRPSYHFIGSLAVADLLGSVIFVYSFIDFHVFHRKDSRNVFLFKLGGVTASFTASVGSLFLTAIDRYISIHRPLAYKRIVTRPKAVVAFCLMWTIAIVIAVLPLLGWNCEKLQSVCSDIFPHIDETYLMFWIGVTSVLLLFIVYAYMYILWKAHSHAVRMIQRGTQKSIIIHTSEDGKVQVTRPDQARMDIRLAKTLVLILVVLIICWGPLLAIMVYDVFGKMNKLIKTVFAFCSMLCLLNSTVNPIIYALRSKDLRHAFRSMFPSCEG

`O=C(NC1CCCCC1)c1ccc2c(c1)N=C(c1ccc(Cl)cc1)c1ccccc1S2` [drawing 738]: the IC50 under setting [1] is 0.0794 µM. The Emax under setting [2] stood at 96%.
Take `O=C(NCc1cccc(Cl)c1)c1ccc2c(c1)N=C(c1ccc(Cl)cc1)c1cc(F)ccc1S2` [drawing 837]: the IC50 under setting [1] is 0.0126 µM. Moreover, the Emax under setting [2] is 110%.
Turning to `O=C(NN1CCOCC1)c1ccc2c(c1)N=C(C1CCCCC1)c1ccccc1S2`, the IC50 under setting [1] is 0.0631 µM. Besides, under setting [2], the Emax amounted to 56%.
With `O=C(NCCC(F)(F)F)c1ccc2c(c1)N=C(c1ccc(F)cc1)c1ccccc1S2` [drawing 827], the IC50 under setting [1] was 0.0126 µM. Further, under setting [2], the Emax stood at 98%.
On to `O=C(NN1CCCCC1)c1ccc2c(c1)N=C(c1ccc(Cl)cc1)c1ccccc1S2` [drawing 914], for which the “% Inhibition” value (Appendix A) is on record as 51%.
For the molecule `CCCC1=Nc2cc(C(=O)NCCCN(C)C3CCCCC3)ccc2Sc2ccccc21`, the Emax under setting [2] turned out to be 120%.
As for `O=C(NCCCC(F)(F)F)c1ccc2c(c1)N=C(c1cccc(F)c1)c1ccccc1S2` [drawing 547], the IC50 under setting [1] was 0.001 µM. The Emax under setting [2] came to 100%.
Regarding `CCCCNC(=O)c1ccc2c(c1)N=C(C#C[Si](C)(C)C)c1ccccc1S2`, the IC50 under setting [1] was 0.631 µM. Under setting [2], the Emax came out at 64%.
The like results for `CC(C)CNC(=O)c1ccc2c(c1)N=C(c1ccc(Cl)c(Cl)c1)c1ccccc1S2` [drawing 643] were, in that order, 0.00501 µM and 108%.
Turning to `O=C(NCCc1cccnc1)c1ccc2c(c1)N=C(c1ccccc1Cl)c1ccccc1S2`, the IC50 under setting [1] is 0.158 µM. Also, under setting [2], the Emax was 76%.
For the molecule `CC(NC(=O)c1ccc2c(c1)N=C(c1ccccc1F)c1ccccc1S2)c1ccccc1` (stereo not drawn) [drawing 748], under setting [1], the IC50 was 0.0794 µM. Also, the Emax under setting [2] was 69%.
For `CCCC1=Nc2cc(C(=O)NCCOC)ccc2Sc2ccccc21` the same measures were 0.2 µM and 107%.
Consider `CC(NC(=O)c1ccc2c(c1)N=C(C1CCCCC1)c1ccccc1S2)c1ccccc1` (stereo not drawn) [drawing 634], for which, under setting [1], the IC50 was 0.0631 µM. Moreover, under “Appendix A”, the “% Inhibition” value was 87%.
Take `O=C(NCCc1ccc(Cl)cc1)c1ccc2c(c1)N=C(c1ccccc1)c1ccccc1S2` [drawing 733]: under setting [1], the IC50 is 0.00794 µM. In addition, the Emax under setting [2] was determined as 108%.
For `Cc1ccsc1C1=Nc2cc(C(=O)NC3CCCC3)ccc2Sc2ccccc21` [drawing 652], under setting [1], the IC50 is 0.0631 µM. Under setting [2], the Emax was 81%.
Regarding `COc1ccc(C2=Nc3cc(C(=O)NCc4cccnc4)ccc3Sc3ccccc32)cc1` [drawing 712], under setting [1], the IC50 was 0.0794 µM. For the same molecule, the Emax under setting [2] came out at 106%.
The like results for `CC(CNC(=O)c1ccc2c(c1)N=C(c1cccc(Cl)c1)c1ccccc1S2)c1ccccc1` (stereo not drawn) [drawing 587] were, in that order, 0.00316 µM and 112%.
Turning to `O=C(NN1CCOCC1)c1ccc2c(c1)N=C(c1ccc(F)cc1)c1ccccc1S2`, the IC50 under setting [1] is 0.631 µM. Besides, the Emax under setting [2] came out at 77%.
Regarding `CCCC1=Nc2cc(C(=O)NCc3ccccc3)ccc2Sc2ccccc21`, the IC50 under setting [1] is 0.02 µM. In addition, the Emax under setting [2] is 111%.
`O=C(NCc1cccc(Cl)c1)c1ccc2c(c1)N=C(N1CCCCC1)c1ccccc1S2(=O)=O` [drawing 939]: the Emax under setting [2] was 91%. The molecule further had an IC50 under setting [3] of 0.02 µM.
As for `O=C(NCc1cccc(Cl)c1)c1ccc2c(c1)N=C(N1CCCCC1)c1ccccc1[S+]2[O-]` (stereo not drawn) [drawing 758], under setting [1], the IC50 is 0.1 µM. The Emax under setting [2] is 71%.
For the molecule `O=C(NCc1ccc(F)cc1)c1ccc2c(c1)N=C(C1CCCCC1)c1ccccc1S2` [drawing 591], the IC50 under setting [1] is 0.00316 µM. Moreover, the Emax under setting [2] came out at 102%.
The like results for `O=C(NCCc1cccnc1)c1ccc2c(c1)N=C(c1ccccn1)c1ccccc1S2` were, in that order, 0.316 µM and 77%.
With `CCCCN(C)C(=O)c1ccc2c(c1)N=C(c1ccc(Cl)cc1)c1ccccc1S2`, the IC50 under setting [1] is 0.0631 µM. The Emax under setting [2] was found to be 92%.
With `Cc1ccsc1C1=Nc2cc(C(=O)NCCc3ccncc3)ccc2Sc2ccccc21`, under setting [1], the IC50 was 0.1 µM. For the same molecule, under setting [2], the Emax was 101%.
As for `CONC(=O)c1ccc2c(c1)N=C(c1ccc(Cl)cc1Cl)c1ccccc1S2`, the negative logarithm of the IC50 (pIC50) (Appendix A, receptor form (mutant or wild-type) not stated) was found to be 1.0. Under setting [2], the Emax is -27%.
Consider `Cc1cc(NC(=O)c2ccc3c(c2)N=C(c2cccc(F)c2)c2ccccc2S3)no1`, for which the IC50 under setting [1] was over 1.26 µM. The Emax under setting [2] came out at 29%.
Take `Cc1ccsc1C1=Nc2cc(C(=O)NN3CCCCC3)ccc2Sc2ccccc21` [drawing 1045]: the IC50 under setting [1] is 0.0316 µM. In addition, the Emax under setting [2] is 100%.
On to `CCOCCNC(=O)c1ccc2c(c1)N=C(c1ccc(C(=O)OCC)cc1)c1ccccc1S2`, for which, under setting [1], the IC50 was 0.158 µM. For the same molecule, the Emax under setting [2] is 77%.
Regarding `O=C(NCc1ccncc1)c1ccc2c(c1)N=C(c1cccc(F)c1)c1ccccc1S2`, the IC50 under setting [1] was 0.0501 µM. Besides, the Emax under setting [2] was 95%.
For `O=C(NCc1ccccn1)c1ccc2c(c1)N=C(N1CCCCC1)c1ccccc1S2`, the IC50 under setting [1] is 0.158 µM. Also, the Emax under setting [2] was 78%.
On to `O=C(NCc1cccnc1)c1ccc2c(c1)N=C(c1ccccc1F)c1ccccc1S2` [drawing 1035], for which the IC50 under setting [1] is 0.0251 µM. Besides, under setting [2], the Emax was 114%.
Regarding `CCCCN(CCCNC(=O)c1ccc2c(c1)N=C(CCC)c1ccccc1S2)Cc1ccccc1`, the IC50 under setting [1] was 0.1 µM. For the same molecule, under setting [2], the Emax was 99%.
As to `CCCC1=Nc2cc(C(=O)N3CCN(C(=O)c4ccco4)CC3)ccc2Sc2ccccc21`, the IC50 under setting [1] was 2.51 µM. Further, the Emax under setting [2] was determined as 88%.
With `CCCCNC(=O)c1ccc2c(c1)N=C(c1ccc(Cl)c(F)c1)c1ccccc1S2` [drawing 769], the IC50 under setting [1] is 0.01 µM. Under setting [2], the Emax stood at 106%.
On to `Cc1ccsc1C1=Nc2cc(C(=O)NCCC(C)C)ccc2Sc2ccccc21` [drawing 945], for which the IC50 under setting [1] is 0.02 µM. Also, the Emax under setting [2] turned out to be 106%.
As to `O=C(NCc1cccnc1)c1ccc2c(c1)N=C(c1ccccc1Cl)c1ccccc1S2`, the Emax under setting [2] was determined as 72%.
For `CCCCNC(=O)c1ccc2c(c1)N=C(c1sccc1C)c1ccccc1S2` [drawing 881], the Emax under setting [2] was found to be 91%. Under setting [3], this molecule had an IC50 of 0.0158 µM.
Take `COCCNC(=O)c1ccc2c(c1)N=C(c1sccc1C)c1ccccc1S2`: under setting [1], the IC50 was 0.0631 µM. In addition, the Emax under setting [2] worked out at 88%.
On to `O=C(NCCC(F)(F)F)c1ccc2c(c1)N=C(c1ccsc1)c1ccccc1S2` [drawing 607], for which the Emax under setting [2] turned out to be 97%. This molecule also gave an IC50 under setting [3] of 0.00398 µM.
For the molecule `O=C(NCc1cccc(Cl)c1)c1ccc2c(c1)N=C(N1CCC(F)CC1)c1ccccc1S2` [drawing 679], the IC50 under setting [1] is 0.00631 µM. The Emax under setting [2] stood at 108%.
For `COc1ccc(C2=Nc3cc(C(=O)NC(C)C)ccc3Sc3ccccc32)cc1` [drawing 780] the same measures were 0.1 µM and 84%.
Consider `CCCCNC(=O)c1ccc2c(c1)N=C(c1ccc(Cl)c(Cl)c1)c1ccccc1S2` [drawing 665], for which, where the note is “read-out: % Inhibition, Appendix A”, the Emax is 109%.
Regarding `COCCNC(=O)c1ccc2c(c1)N=C(c1ccc(Cl)cc1Cl)c1ccccc1S2`, the IC50 under setting [1] is 0.316 µM. Also, the Emax under setting [2] amounted to 69%.
In the case of `CCONC(=O)c1ccc2c(c1)N=C(c1ccc(Cl)cc1Cl)c1ccccc1S2`, the IC50 under setting [1] is 3.16 µM. The Emax under setting [2] came to 37%.
For the molecule `CCCCN(C)C(=O)c1ccc2c(c1)N=C(c1ccccc1Cl)c1ccccc1S2`, under setting [2], the Emax was found to be 40%.
In the case of `CC(C)NC(=O)c1ccc2c(c1)N=C(c1cccc(Cl)c1)c1ccccc1S2` [drawing 921], the IC50 under setting [1] was 0.0158 µM. The Emax under setting [2] came to 118%.
Take `O=C(NN1CCCCCC1)c1ccc2c(c1)N=C(c1cccc(F)c1)c1ccccc1S2` [drawing 697]: the Emax under setting [2] came to 106%. The same molecule had an IC50 under setting [3] of 0.00794 µM.
Take `CC(C)CNC(=O)c1ccc2c(c1)N=C(c1ccccc1F)c1ccccc1S2` [drawing 627]: the IC50 under setting [1] is 0.00501 µM. Further, under setting [2], the Emax is 118%.
For `CCCCNC(=O)c1ccc2c(c1)N=C(c1cccc(Cl)c1)c1cc(F)ccc1S2` [drawing 829], under setting [1], the IC50 was 0.0126 µM. The Emax under setting [2] stood at 105%.
The like results for `CCCCNC(=O)c1ccc2c(c1)N=C(c1cccc(F)c1)c1ccccc1S2` [drawing 719] were, in that order, 0.00794 µM and 113%.
As for `CCCC1=Nc2cc(C(=O)N3CCN(c4ccc(F)cc4)CC3)ccc2Sc2ccccc21`, under setting [1], the IC50 is 0.251 µM. For the same molecule, the Emax under setting [2] was found to be 108%.
Consider `COCCNC(=O)c1ccc2c(c1)N=C(c1ccc(Cl)s1)c1ccccc1S2` [drawing 963], for which the IC50 under setting [1] is 0.02 µM. In addition, the “% Inhibition” value (Appendix A) amounted to 95%.
As to `O=C(NCCc1cccc(Cl)c1)c1ccc2c(c1)N=C(C1CCCCC1)c1ccccc1S2` [drawing 1001], the IC50 under setting [1] is 0.0251 µM. For the same molecule, under setting [2], the Emax came out at 102%.
On to `CC(C)CNC(=O)c1ccc2c(c1)N=C(c1ccc(Cl)s1)c1ccc(Cl)cc1S2` [drawing 983], for which, under setting [1], the IC50 is 0.0251 µM. Also, under setting [2], the Emax was 110%.
As to `CCCCNC(=O)c1ccc2c(c1)N=C(c1ccc(Br)cn1)c1ccccc1S2` [drawing 807], the IC50 under setting [1] is 0.01 µM. Moreover, under setting [2], the Emax turned out to be 105%.
In the case of `NS(=O)(=O)c1ccc(CNC(=O)c2ccc3c(c2)N=C(NCc2ccc(Cl)cc2)c2ccccc2S3)cc1`, under setting [1], the IC50 is 1.58 µM. Besides, the Emax under setting [2] stood at 41%.
The like results for `CN1c2ccc(C(=O)NCc3ccc(F)cc3)cc2N=C(c2ccc(F)cc2)c2ccccc21` [drawing 752] were, in that order, 0.0794 µM and 91%.
For the molecule `O=C(NCc1ccccc1)c1ccc2c(c1)N=C(c1cccc(Cl)c1)c1ccccc1S2` [drawing 717], under setting [1], the IC50 is 0.00794 µM. Also, under setting [2], the Emax was determined as 106%.
As to `O=C(NN1CCCCC1)c1ccc2c(c1)N=C(c1ccc(Cl)cc1)c1ccccc1S2` [drawing 863], the “% Inhibition” value (Appendix A) is given as 103%.
